From patent US11883404B2, “Preparation and composition for treatment of malignant tumors” (TAIHO PHARMACEUTICAL CO., LTD., priority 2016, dated 2024)
Where a name gives a salt, the structure may show the parent alone. Read-outs that look alike come from different tables or passages of the source.

How the values were obtained:
[1] = tested on: human gastric cancer line SNU-16; format: in vivo; settings: alone
Procedure: The day at which the grouping was carried out was defined as Day 0. TV (mm^3)=(Major axis×Minor axis^2)/2(units for the major axis and the minor axis were mm).
(§1) RTV was calculated according to the expression given below from TV values on the day of measurement and on the day of grouping. […] RTV=(TV on the day of measurement)/(TV on the day of grouping) T/C (%)=(Average RTV in each medicine administration group on the day of assessment)/(Average RTV in the control group on the day of assessment)×100

[2] = tested on: human endometrial cancer line AN3CA; experiment: Antitumor effect of Compound 1 and gemcitabine on subcutaneously implanted AN3CA tumor in nude mouse (Example 4); format: in vivo, BALB/cAJcl-nu/nu mice; settings: Day 15
Procedure: Gemcitabine was administered at 100 mg/kg/day from the tail vein at Day 1 and Day 8.

[3] = tested on: human endometrial cancer line AN3CA; experiment: Antitumor effect of Compound 1 and Compound 2 on subcutaneously implanted AN3CA tumor in nude mouse (Example 16); format: in vivo, BALB/cAJcl-nu/nu mice; settings: alone, Day 15
Procedure: The day at which the grouping was carried out was defined as Day 0. TV(mm^3)=(Major axis×Minor axis^2)/2(units for the major axis and the minor axis were mm).
The dose of Compound 2 was set in consideration of well tolerated dose for nude mice, etc.
as §1

[4] = tested on: human endometrial cancer line AN3CA; settings: for T/C (%): Day 11
[5] = tested on: human endometrial cancer line AN3CA; settings: alone, Day 15
Procedure: An engrafted tumor was removed from the mice, chopped into fragments of 2 mm square, and then subcutaneously implanted to 6-week-old female BALB/cAJcl-nu/nu mice.
Everolimus was orally administered each day at 2 mg/kg/day for 14 days.

[6] = tested on: human gastric cancer line SNU-16; experiment: Antitumor effect of Compound 1 and paclitaxel on subcutaneously implanted SNU-16 tumor in nude mouse (Example 2); settings: for T/C (%): Day 15
[7] = tested on: human endometrial cancer line AN3CA; experiment: Apoptosis induction, CellEvent Caspase-3/7 Green Detection, Compound 1 and Compound 2 (Example 14); format: cell-based; settings: Compound 1 100 nM, Compound 2 100 nM, 24 hours
Procedure: (§2) The presence or absence of induction of apoptosis by concomitant use was observed using CellEvent™ Caspase-3/7 Green Detection Reagent (Invitrogen Corp.). […] The concentration of Compound 2 was set to 100 nM. These medicines used alone (DMSO was added as a control) or concomitantly were comparatively studied. […] Apoptosis was detected by adding 6 μL of CellEvent™ Caspase-3/7 Green Detection Reagent (Invitrogen Corp.) solution per well to the cells, incubating the cells at 37° C. for 30 minutes, and then measuring cell images in the bright field and fluorescence signals, under a fluorescence microscope. The observed fluorescence signals indicate the induction of Caspase 3/7, and the amplitude of the signals represents the presence or absence of induction of apoptosis-like cell death.

[8] = tested on: human small cell lung cancer cell line DMS 114; experiment: Cell survival rate assay (CellTiter-Glo 2.0), IC50 and combination index of Compound 1 and Compound 2 (Example 15); format: cell-based; settings: each medicine alone, 72 hours
Procedure: A human small cell lung cancer cell line DMS 114 was cultured using a Waymouth's medium containing 10% fetal bovine serum. The cells were maintained at 37° C. under 5% CO2 and subcultured at a ratio of 1:5 to 1:20 by 1 to 2 passages per week.
Cell survival rate was measured using CellTiter-Glo 2.0 (produced by Promega Corp.). The cells were collected by an ordinary method, then suspended in a Waymouth's medium containing 10% fetal bovine serum, and seeded in a 96-well plate. The number of cells seeded per well was set to 2000 cells/50 μL. […] In addition to groups of each medicine alone, groups of both the medicines simultaneously added were prepared in parallel. […] Cell survival rates were calculated by adding 50 μL of CellTiter-Glo 2.0 solution to each well, incubating the cells at room temperature for 15 minutes, and then measuring the chemiluminescence intensity of each well using a plate reader (FlexStation 3). The cell survival rates in medicine addition were calculated as a ratio vs. the control group (100%) according to the following equation: Cell survival rate (%)=(Chemiluminescence intensity at the time of medicine addition)/(Chemiluminescence intensity of the control group)×100
Also, Fa (fraction of affect) values were calculated by subtracting a 1/100 value of the cell survival rate from 1. […]

[9] = tested on: human endometrial cancer line AN3CA; experiment: Apoptosis induction, CellEvent Caspase-3/7 Green Detection, Compound 1 and MK2206 (Example 9); format: cell-based; settings: Compound 1 10 nM, MK2206 dihydrochloride 300 nM (free form), 24 hours
Procedure: as §2, with “MK2206 dihydrochloride” for “Compound 2”, “300 nM (in terms of a free form).” for “100 nM.”, “1” for “6”

phosphorylated AKT = experiment: Western blot, intracellular phosphorylation of AKT in AN3CA (Example 11); format: cell-based, human; settings: Compound 1 10 and 100 nM, MK2206 dihydrochloride 5 μM
Procedure: The intracellular phosphorylation levels of ERK, AKT, mTOR and S6 were detected by Western blot method. […] Likewise, MK2206 dihydrochloride was added at a final concentration of 5 μM (in terms of a free form), and everolimus was added at a final concentration of 3 nM. Each medicine alone and each combination were studied. DMSO was added as a control at a final concentration of 0.2%. […] The amounts of phosphorylated AKT, phosphorylated ERK, phosphorylated mTOR, phosphorylated S6 and GAPDH were detected using Western blot according to an ordinary method.

phosphorylated mTOR = experiment: Western blot, intracellular phosphorylation of mTOR in AN3CA (Example 11); format: cell-based, human; settings: everolimus 3 nM alone
Procedure: The intracellular phosphorylation levels of ERK, AKT, mTOR and S6 were detected by Western blot method. […] Likewise, MK2206 dihydrochloride was added at a final concentration of 5 μM (in terms of a free form), and everolimus was added at a final concentration of 3 nM. Each medicine alone and each combination were studied. DMSO was added as a control at a final concentration of 0.2%.
Then, cell lysates were prepared using RIPA Buffer [composition: 50 mM Tris-HCl (pH 8.0), 150 mM NaCl, 5 mM EDTA, 1% (w/w) Nonidet P-40, 0.1% (w/w) sodium deoxycholate, and 0.1% (w/w) SDS]. The amounts of phosphorylated AKT, phosphorylated ERK, phosphorylated mTOR, phosphorylated S6 and GAPDH were detected using Western blot according to an ordinary method.

[10] = tested on: Human lung cancer line HCC4006; settings: 100 ng/mL FGF7, 72 hours
Procedure: (§3) Cell survival rates were measured using CellTiter-Glo. The cells were recovered by an ordinary method, suspended in the above medium containing 10% fetal bovine serum, and seeded in a 96-well plate. The number of cells seeded per well was set to 2000 cells/70 μL. […] In order to study effects on the activated FGF/FGFR pathway in the cells, a ligand FGF2 or FGF7 was added to the cells and compared with non-addition. […] DMSO was added to a control well, and 10 ng/mL FGF2 or 100 ng/mL FGF7 was added to the medium.
(§4) The cells were incubated at 37° C. for 72 hours under 5% CO2. Then, 100 μL of CellTiter-Glo solution was added to each well, and the cells were incubated at room temperature for 10 minutes, followed by the measurement of chemiluminescence intensity using a plate reader (ARVO). Growth inhibitory effects relative to the vehicle group were calculated from the obtained data.

[11] = tested on: Human lung cancer line NCI-H1650; settings: 100 ng/mL FGF7, 72 hours
Procedure: as §3, §4

[12] = Compound 1 15 mg/kg/day orally once a day for 14 days, alone

With `C=CC(=O)N1CC[C@H](n2nc(C#Cc3cc(OC)cc(OC)c3)c3c(N)ncnc32)C1` [Compound 1, (S)-1-(3-(4-Amino-3-((3,5-dimethoxyphenyl)ethynyl)-1H-pyrazolo[3,4-d]pyrimidin-1-yl)pyrrolidin-1-yl)prop-2-en-1-one] the “T/C (%)” value ([1]; Compound 1 5 mg/kg/day orally once a day for 14 days, day of assessment (Day 15)) was 83.6%, the “T/C (%)” value ([1]; Compound 1 15 mg/kg/day orally once a day for 14 days, Day 15) was 69.0% and the “T/C (%)” value ([2]; Compound 1 15 mg/kg/day orally each day for 14 days, alone) was 42.1%. For the same molecule, the “T/C (%)” value ([3]; Compound 1 15 mg/kg/day orally once a day for 14 days) was 22.1%, the “T/C (%)” value [4, 12] was 46.0% and the “T/C (%)” value ([5]; Compound 1 15 mg/kg/day orally each day for 14 days) was 33.3%. The “T/C (%)” value ([5]; Compound 1 50 mg/kg/day orally each day for 14 days) was 12.6%, the “T/C (%)” value ([6]; Compound 1 5 mg/kg/day orally once a day for 14 days, alone) was 83.6% and the “T/C (%)” value [6, 12] was 69.0%.

`CC1(O)CC(N)(c2ccc(-c3nc4n(c3-c3ccccc3)COc3ccncc3-4)cc2)C1` (stereo not drawn) [Compound 2, trans-3-amino-1-methyl-3-(4-(3-phenyl-5H-imidazo[1,2-c]pyrido[3,4-e][1,3]oxazin-2-yl)phenyl)cyclobutanol] was tested, and the “induction of cell death (Caspase 3/7 fluorescence signals)” value [7] was “hardly found”, the IC50 [8] was 4.86 µM and the “T/C (%)” value ([3]; Compound 2 4 mg/kg/day orally once a day for 14 days) was 58.6%. For the same molecule, the “T/C (%)” value ([3]; Compound 2 8 mg/kg/day orally once a day for 14 days) was 55.4%.

In the case of `NC1(c2ccc(-c3nc4ccn5c(=O)[nH]nc5c4cc3-c3ccccc3)cc2)CCC1` [MK2206 dihydrochloride, 8-[4-(1-aminocyclobutyl)phenyl]-9-phenyl-1,2,4-triazolo[3,4-f][1,6]naphthyridin-3(2H)-one], the “induction of cell death (Caspase 3/7 fluorescence signals)” value [9] is reported as “hardly found” and the AKT phosphorylation (phosphorylated AKT) is reported as “inhibited”.

`N.N.[Cl][Pt][Cl]` [cisplatin] was tested, and the “T/C (%)” value ([4]; cisplatin 7 mg/kg/day tail vein at Day 1, alone) was 53.0% and the “body weight change of the mice” value ([4]; mouse, in vivo) was “transient decrease in body weight”.

In the case of `CO[C@H]1C[C@@H]2CC[C@@H](C)[C@@](O)(O2)C(=O)C(=O)N2CCCC[C@H]2C(=O)O[C@H]([C@H](C)C[C@@H]2CC[C@@H](OCCO)[C@H](OC)C2)CC(=O)[C@H](C)/C=C(\C)[C@@H](O)[C@@H](OC)C(=O)[C@H](C)C[C@H](C)/C=C/C=C/C=C/1C` [everolimus, reference compound], the mTOR phosphorylation (phosphorylated mTOR) is reported as “inhibited” and the “T/C (%)” value ([5]; everolimus 2 mg/kg/day orally each day for 14 days) is reported as 27.1%.

`COc1cc2ncnc(Nc3ccc(F)c(Cl)c3)c2cc1OCCCN1CCOCC1` [gefitinib] was tested, and the “drug effect of gefitinib on addition of the FGFR ligand FGF7” value [10] was “attenuated” and the “drug effect of gefitinib on addition of the FGFR ligand FGF7” value [11] was “attenuated”.

In the case of `Nc1ccn([C@@H]2O[C@H](CO)[C@@H](O)C2(F)F)c(=O)n1` [gemcitabine, reference compound], the “T/C (%)” value ([2]; gemcitabine 100 mg/kg/day tail vein at Day 1 and Day 8, alone) is reported as 75.5%.

With `CC(=O)O[C@H]1C(=O)[C@@]2(C)[C@H]([C@H](OC(=O)c3ccccc3)[C@]3(O)C[C@H](OC(=O)[C@H](O)[C@@H](NC(=O)c4ccccc4)c4ccccc4)C(C)=C1C3(C)C)[C@]1(OC(C)=O)CO[C@@H]1C[C@@H]2O` [paclitaxel, reference compound] the “body weight change of the mice” value ([6]; paclitaxel 60 mg/kg, concomitant use group vs each medicine group) was “transient decrease in body weight” and the “T/C (%)” value ([6]; paclitaxel single dose 60 mg/kg/day tail vein at Day 1, alone) was 12.9%.
